For experiment [1], the system named is E. faecalis. In words: Minimum Bactericidal Concentration (MBC) assay, E. faecalis. As to conditions: for MBC: Enterococcus faecalis, read-out: MBC for E. faecalis; for MBC for E. faecalis: Table 4, compound administered alone, second figure of MIC/MBC, n.d. = activity not observed.
Experiment [2] concerns E. faecalis. In words: Minimum Inhibitory Concentration (MIC) assay, E. faecalis. The experiment is classed as cell-based, Enterococcus faecalis. The settings on record: for MIC: read-out: MIC for E. faecalis; for Growth inhibition of the pathogen of interest compared to the compound of Example 14 in WO 2018/229141: conclusion from Table 3 (E. faecalis and MRSA). As to the method:
(§1) The cultures (200 μl) were incubated at 37° C. for 24 h. […] The MIC was measured in micromolar concentration, i.e. μM. Objectively, this was determined by measuring the optical density (i.e. OD) of the test cultures at 600 nm using a spectrophotometer. As used herein, OD600 stands for optical density at a wavelength of 600 nm (i.e. 600 nanometers).

Experiment [3] relates to MRSA. Put plainly: Minimum Bactericidal Concentration (MBC) assay, MRSA. The settings on record: for MBC: Staphylococcus aureus, MRSA.
Another experiment relates to E. faecalis OG1RF. Put plainly: Combined activity with gentamicin, vancomycin or ampicillin, E. faecalis OG1RF. The format is cell-based, Enterococcus faecalis. As to conditions: for OD600 at 24 h when combined with gentamicin / Synergistic effect when combined with gentamicin: compound 1 μM; for OD600 at 24 h when combined with gentamicin / Synergistic effect when combined with gentamicin / E. faecalis activity, combination with gentamicin compared to gentamicin alone, compound alone and comparative example alone / E. faecalis activity, combination with gentamicin compared to the combination of the comparative example and gentamicin: gentamicin 16 μg/ml; for Synergistic effect when combined with gentamicin: 24 h, n.d. = activity not observed; for E. faecalis activity, combination with gentamicin compared to gentamicin alone, compound alone and comparative example alone / E. faecalis activity, combination with gentamicin compared to the combination of the comparative example and gentamicin / E. faecalis activity, combination with vancomycin compared to vancomycin alone or compound alone: subinhibitory compound 1-4 μM, OD600 24 h; for E. faecalis activity, combination with vancomycin compared to vancomycin alone or compound alone: vancomycin 1 μg/ml. As to the method: (§2) […]. The concentrations used in the experiments with E. faecalis OG1RF were 16 μg/ml gentamicin, 1 μg/ml vancomycin or 1 μg/ml ampicillin. In experiments where combinations were tested against MRSA 1369, 0.05 μg/ml gentamicin, 1 μg/ml vancomycin or 16 μg/ml ampicillin was used.
(§3) Bacterial cultures (190 μl) at a starting OD=0.001 at OD600 were incubated together with either subinhibitory concentrations of gentamicin/vancomycin/ampicillin or compound alone, or a combination of the two. The cultures (200 μl) were incubated at 37° C. for 24 h. A control sample without compound and gentamicin/vancomycin/ampicillin but containing compound vehicle (DMSO) and gentamicin/vancomycin/ampicillin vehicle (MQ water) was performed the same way. After 24 h, the effect on bacterial growth compared to untreated control samples was determined by measuring optical density at 600 nm with a spectrophotometer.
[…]. MIC/MBC values for the compounds administered alone are also shown for comparison. Unless otherwise stated, the compound was provided in a concentration of 1 μM.

For experiment [4], the system named is MRSA. In words: Minimum Inhibitory Concentration (MIC) assay, MRSA. The format is cell-based, Methicillin-resistant Staphylococcus aureus. As to conditions: Staphylococcus aureus, MRSA, 24 h, read-out: MIC for MRSA. The procedure:
as §1

The next experiment has as its system MRSA 1369. In words: Combined activity with gentamicin, vancomycin or ampicillin, MRSA 1369. The format is cell-based, Methicillin-resistant Staphylococcus aureus. The settings on record: subinhibitory compound 1-4 μM, OD600 24 h; for MRSA activity, combination with vancomycin compared to vancomycin alone or compound alone: vancomycin 1 μg/ml. The procedure: as §2, §3

[5] abbreviates: Enterococcus faecalis, 24 h, Table 3, compound alone, no antibiotic, 24 h, 37° C., OD600, first figure of MIC/MBC, n.d. = activity not observed at the concentrations tested.
Setting [6] is: read-out: MBC for MRSA, Table 3, compound alone, no antibiotic, MIC cultures plated on BHI, second figure of MIC/MBC, n.d. = activity not observed at the concentrations tested.
The mark [7] stands for this setting: Table 3, compound alone, no antibiotic, 37° C., OD600, first figure of MIC/MBC, n.d. = activity not observed at the concentrations tested.
Setting [8] is: Enterococcus faecalis, Table 4, compound administered alone, first figure of MIC/MBC, n.d. = activity not observed.

Molecules are shown by their SMILES. Values after ≈ are worked out from the molar mass of the structure shown. Read-outs that look alike come from different tables or passages of the source.

As usually defined, the MBC is the smallest concentration meeting the test's criterion for killing. What is called MIC is the lowest concentration that inhibits growth of the organism. On to `O=C(O)C12C[C@@H](c3cccc(C(F)(F)F)c3)C1Sc1c(C3CC3)c(Cc3cccc4ccccc34)cc(=O)n12` (single isomer, unassigned) [Example 3], for which the MBC with E. faecalis [1] was 25 µM (≈ 13.7 µg/mL); in the experiment on MRSA [3] (setting [6]), 5 µM (≈ 2.74 µg/mL). The “MBC for E. faecalis” value in the experiment with E. faecalis [1] was 25 µM. Further, the MIC in the experiment with E. faecalis [2] (setting [5]) is 10 µM (≈ 5.48 µg/mL); in the experiment with E. faecalis [2] (Table 4, compound administered alone, first figure of MIC/MBC, n.d. = activity not observed), 10 µM (≈ 5.48 µg/mL); in the experiment with MRSA [4] (setting [7]), 5 µM (≈ 2.74 µg/mL). Also, the “OD600 at 24 h when combined with gentamicin” value (shortened to “OD600 at 24 h when combined”) in the experiment on E. faecalis OG1RF is “OD600 = 0.35 at 24 h”. In addition, in the experiment on E. faecalis OG1RF, the “Synergistic effect when combined with gentamicin” value (“Synergistic effect when combined” for short) is listed as “Yes”.

Regarding `O=C(O)C12C[C@@H](c3cccc(Cl)c3)C1Sc1c(C3CC3)c(Cc3cccc4ccccc34)cc(=O)n12` (stereo partly shown) [Example 9], in the experiment on E. faecalis [1], the MBC stood at 25 µM (≈ 12.9 µg/mL) and the “MBC for E. faecalis” value turned out to be 25 µM. In the experiment on E. faecalis [2] (setting [8]), the MIC came to 5 µM (≈ 2.57 µg/mL). In addition, the MIC in the experiment on E. faecalis [2] (Table 3, compound alone, no antibiotic, 24 h, 37° C., OD600, first figure of MIC/MBC, n.d. = activity not observed at the concentrations tested) was 5 µM (≈ 2.57 µg/mL). The “Growth inhibition of the pathogen of interest compared to the compound of Example 14 in WO 2018/229141” value in the experiment on E. faecalis [2] (compound alone) was “substantially similar extent or to a higher extent”. Moreover, the “MBC for MRSA” value in the experiment with MRSA [3] (Table 3, compound alone, no antibiotic, MIC cultures plated on BHI, second figure of MIC/MBC, n.d. = activity not observed at the concentrations tested) is 1 µM. Further, in the experiment on E. faecalis OG1RF, the “OD600 at 24 h when combined” value is listed as “OD600 = 0.1” and the “Synergistic effect when combined” value is “Yes”. Also, the MIC in the experiment on MRSA [4] (setting [7]) was 5 µM (≈ 2.57 µg/mL).

For the compound `O=C(O)C12C[C@@H](c3cccc(Cl)c3)C1Sc1c(C3CC3)c(Cc3cc4ccccc4s3)cc(=O)n12` (stereo partly shown) [Example 30], the MIC in the experiment on E. faecalis [2] (setting [5]) is 5 µM (≈ 2.6 µg/mL). Moreover, in the experiment with E. faecalis OG1RF, the “E. faecalis activity, combination with gentamicin compared to gentamicin alone, compound alone and comparative example alone” value is listed as “much larger extent”; the “E. faecalis activity, combination with gentamicin compared to the combination of the comparative example and gentamicin” value is listed as “much larger extent”; the “E. faecalis activity, combination with vancomycin compared to vancomycin alone or compound alone” value is “much larger extent”. In addition, in the experiment with MRSA [4] (setting [7]), the MIC is 5 µM (≈ 2.6 µg/mL). Moreover, the “MRSA activity, combination with gentamicin compared to gentamicin alone or compound alone” value with MRSA 1369 (gentamicin 0.05 μg/ml) is “much larger extent”. Further, the “MRSA activity, combination with vancomycin compared to vancomycin alone or compound alone” value in the experiment on MRSA 1369 is given as “much larger extent”.

Consider `O=C(O)C12C[C@@H](c3c(Cl)cccc3Cl)C1Sc1c(C3CC3)c(Cc3cccc4ccccc34)cc(=O)n12` (stereo partly shown) [Example 33], for which the MIC in the experiment on E. faecalis [2] (setting [5]) stood at 5 µM (≈ 2.74 µg/mL). Besides, in the experiment on E. faecalis [2] (compound alone), the “Growth inhibition of the pathogen of interest compared to the compound of Example 14 in WO 2018/229141” value is “substantially similar extent or to a higher extent”. Also, in the experiment with E. faecalis OG1RF, the “E. faecalis activity, combination with gentamicin compared to gentamicin alone, compound alone and comparative example alone” value is given as “much larger extent”; the “E. faecalis activity, combination with gentamicin compared to the combination of the comparative example and gentamicin” value is given as “much larger extent”; the “E. faecalis activity, combination with vancomycin compared to vancomycin alone or compound alone” value is “much larger extent”. Also, the MIC with MRSA [4] (setting [7]) came out at 5 µM (≈ 2.74 µg/mL). The “MRSA activity, combination with ampicillin compared to ampicillin alone or compound alone” value with MRSA 1369 (ampicillin 16 μg/ml) was “much larger extent”. Further, the “MRSA activity, combination with vancomycin compared to vancomycin alone or compound alone” value in the experiment on MRSA 1369 is recorded as “much larger extent”.

Consider `O=C(O)C12C[C@@H](c3cccc(Br)c3)C1Sc1c(C3CC3)c(Cc3cccc4ccccc34)cc(=O)n12` (stereo partly shown) [Example 17], for which the figures for the minimum bactericidal concentration (MBC) in the experiment with E. faecalis [1] and in the experiment on MRSA [3] (setting [6]) were 25 µM (≈ 14 µg/mL) and 7.5 µM (≈ 4.19 µg/mL), respectively. Besides, the values for the MIC with E. faecalis [2] (setting [5]), with E. faecalis [2] (setting [8]) and in the experiment with MRSA [4] (setting [7]) were 4 µM (≈ 2.23 µg/mL), 4 µM (≈ 2.23 µg/mL) and 3 µM (≈ 1.68 µg/mL), respectively. Further, the “Growth inhibition of the pathogen of interest compared to the compound of Example 14 in WO 2018/229141” value in the experiment on E. faecalis [2] (compound alone) is “substantially similar extent or to a higher extent”. Besides, the “OD600 at 24 h when combined” value in the experiment with E. faecalis OG1RF is “OD 600 = 0”. Further, the “Synergistic effect when combined” value with E. faecalis OG1RF was “Yes”. The “E. faecalis activity, combination with gentamicin compared to gentamicin alone, compound alone and comparative example alone” value in the experiment with E. faecalis OG1RF is “much larger extent”. The “E. faecalis activity, combination with gentamicin compared to the combination of the comparative example and gentamicin” value in the experiment on E. faecalis OG1RF was “much larger extent”.

`Cc1cccc([C@@H]2CC3(C(=O)O)C2Sc2c(C4CC4)c(Cc4cccc5ccccc45)cc(=O)n23)c1` (stereo partly shown) [Example 19A]: the MBC with E. faecalis [1] was 25 µM (≈ 12.3 µg/mL); in the experiment on MRSA [3] (read-out: MBC for MRSA) it was 10 µM (≈ 4.94 µg/mL). Besides, the MIC is 7.5 µM (≈ 3.7 µg/mL) in the experiment on E. faecalis [2] (Enterococcus faecalis, 24 h); 7.5 µM (≈ 3.7 µg/mL) with E. faecalis [2] (Enterococcus faecalis); 5 µM (≈ 2.47 µg/mL) in the experiment with MRSA [4]. The “Growth inhibition of the pathogen of interest compared to the compound of Example 14 in WO 2018/229141” value in the experiment with E. faecalis [2] (compound alone) was “substantially similar extent or to a higher extent”. Moreover, the “Synergistic effect when combined” value in the experiment on E. faecalis OG1RF is recorded as “Yes”.

(Values after patent US12503476B2, “Ring-fused 2-pyridone compounds, methods for preparation thereof and their use in the treatment and/or prevention of a disease involving gram-positive bacteria” (QURETECH BIO AB, priority 2020, dated 2025).)
